This note sets out measurements from patent US7157455B2, “4-Aminopyrimidine-5-one derivatives” (Hoffmann-La Roche Inc., priority 2003, dated 2007).

Each structure is given as a SMILES string. pIC50: −log10 of the molar value.

In one experiment the target is human cyclin D1-CDK4 (Homo sapiens, UniProt P11802). The experiment in a line: FlashPlate kinase assay, IC50 measurement, cyclin D1-CDK4. The format is biochemical. Particulars: Rb protein substrate, 1 μM ATP. The method, then:
(§1) To determine inhibition of Cdk4, Cdk2 and Cdk1 activity, kinase assays were conducted using FlashPlate™ assays (NEN™-Life Science Products). FlashPlate assays were performed using recombinant human cyclin B-CDK1, human cyclin E-CDK2 or human cyclin D1-CDK4 complexes. GST-cyclinE (GST-cycE), CDK2, GST-cyclinB (GST-cycB), CDK1, GST-CDK4 and cyclin D1 (cycD1) cDNA clones in baculovirus vectors were provided by Dr. W. Harper at the Baylor College of Medicine, Houston, Tex. Proteins were co-expressed in High Five™ insect cells and the complex was purified on glutathione Sepharose resin (Pharmacia, Piscataway, N.J.) as previously described (Harper, J. W. et al. Cell 1993, 75, 805–816). A 6×-Histidine tagged truncated form of retinoblastoma (Rb) protein (amino acid 386–928) was used as the substrate for the cycD1-CDK4, cycB-CDK1 and the cycE-CDK2 assays (the expression plasmid was provided by Dr. Veronica Sullivan, Department of Molecular Virology, Roche Research Centre, Welwyn Garden City, United Kingdom). The Rb protein is a natural substrate for phosphorylation by CDK4, CDK2 and CDK1 (see Herwig and Strauss Eur. J. Biochem. Vol. 246 (1997) pp. 581–601 and the references cited therein).
(§2) The expression of the 62 Kd protein was under the control of an IPTG inducible promoter in an M15 E. coli strain. Cells were lysed by sonication and purification was carried out by binding lysates at pH 8.0 to a Ni-chelated agarose column pretreated with 1 mM imidazole. The resin was then washed several times with incrementally decreasing pH buffers to pH 6.0, and eluted with 500 mM imidazole. Eluted protein was dialysed against 20 mM HEPES pH 7.5, 30% glycerol, 200 mM NaCl, and 1 mM DTT. Purified Rb fusion protein stocks were quantitated for protein concentration, aliquoted, and stored at −70° C.
(§3) For all three kinase assays reported herein, 96-well FlashPlates were coated with Rb protein at 10 μg/ml, using 100 μl per well. Plates were incubated at 4° C. overnight or at room temperature for 3 hours on a shaker. To control for nonspecific phosphorylation, one row of wells was coated with 100 μl/well coating buffer (20 mM HEPES, 0.2 M NaCl). Plates were then washed twice with wash buffer (0.01% Tween 20 in phosphate-buffered saline). Compounds to be tested (“test compounds”) were added to the wells at 5× final concentration. Reactions were initiated by immediate addition of 40 μl reaction mix (25 mM HEPES, 20 mM MgCl2, 0.002% Tween 20, 2 mM DTT, 1 μM ATP, 4 nM ^33P-ATP) and a sufficient amount of enzyme to give counts that were at least 10-fold above background. Plates were incubated at room temperature on a shaker for 30 minutes. Plates were washed four times with the wash buffer, sealed, and counted on the TopCount scintillation counter (Packard Instrument Co., Downers Grove, Ill. The percent inhibition of Rb phosphorylation, which is a measure of the inhibition of CDK activity, was determined according to the following formula:
(§4) [formula] where “test compound” refers to the average counts per minute of the test duplicates, “nonspecific” refers to the average counts per minute when no CyclinD/Cdk4, etc., was added, and “total” refers to the average counts per minute when no compound was added. The IC50 value is the concentration of test compound that reduces by 50% the protein-kinase induced incorporation of the radiolabel under the test conditions described. B: Ki Measurement

In a further experiment the target is human cyclin B-CDK1 (Homo sapiens, UniProt P06493). Kind of experiment: FlashPlate kinase assay, IC50 measurement, cyclin B-CDK1. The format is biochemical. Particulars: Rb protein substrate, 1 μM ATP. The method, then:
as §1, §2, §3, §4

For a further experiment, the target named is human cyclin E-CDK2 (Homo sapiens, UniProt P24941). Kind of experiment: FlashPlate kinase assay, IC50 measurement, cyclin E-CDK2. The note with it: Rb protein substrate, 1 μM ATP; read-out: CDK2 IC50. The format is biochemical. The method, then: To determine inhibition of Cdk4, Cdk2 and Cdk1 activity, kinase assays were conducted using FlashPlate™ assays (NEN™-Life Science Products). FlashPlate assays were performed using recombinant human cyclin B-CDK1, human cyclin E-CDK2 or human cyclin D1-CDK4 complexes. GST-cyclinE (GST-cycE), CDK2, GST-cyclinB (GST-cycB), CDK1, GST-CDK4 and cyclin D1 (cycD1) cDNA clones in baculovirus vectors were provided by Dr. W. Harper at the Baylor College of Medicine, Houston, Tex.
as §2, §3
[formula] where “test compound” refers to the average counts per minute of the test duplicates, “nonspecific” refers to the average counts per minute when no CyclinD/Cdk4, etc., was added, and “total” refers to the average counts per minute when no compound was added. […] B: Ki Measurement

The next experiment has as its system HCT116 cells. The experiment in a line: Tetrazolium dye proliferation assay (MTT assay). The format is cell-based. Particulars: Homo sapiens, HCT-116; 90% inhibition of cell proliferation, HCT116 colorectal carcinoma cell line. The protocol: The cell line used was HCT116, a colorectal carcinoma cell line obtained from the American Type Cell Culture Collection (ATCC; Rockville, Md.). The cells were grown in McCoy's 5A medium supplemented with 10% FCS and L-glutamine.
Cells were plated at the appropriate seeding density to give logarithmic growth over the course of the assay in a 96-well tissue culture plate. Plates were incubated overnight at 37° C. in a humidified incubator with 5% CO2. The next day, test compounds were serially diluted to four times the final concentration in the appropriate medium containing 1.2% DMSO. One-fourth final volume of each dilution was added in duplicate to the plates containing cells. The same volume of 1.2% DMSO in medium was added to a row of “control wells” such that the final concentration of DMSO in each well was 0.3%. Wells to which no cells were added served as the “blank.” Wells to which no inhibitor was added served as “no inhibitor control.” The plates were) returned to the incubator, and at set time points (determined by their growth curves) plates were analyzed as described below.
3-(4,5-dimethylthiazole-2-yl)-2,5-diphenyl-2H-tetrazolium bromide (thiazolyl blue; MTT; Sigma) was added to each well to yield a final concentration of 1 mg/ml. Plates were returned to the incubator for 2.5–3 hours at 37° C. The MTT-containing medium was removed and the resulting formazan metabolite was solubilized in 100% ethanol with shaking for 15 minutes at room temperature. Absorbance readings were taken in a microtiter plate reader (Dynatech and Molecular Devices plate readers were used interchangeably) at a wavelength of 570 nm with a 650 nm reference. Percent inhibition (% INH) is calculated by subtracting the absorbance of the blank well from all wells, then subtracting the ratio of the average absorbance of each test duplicate (SAVE) by the average of the controls (CAVE) from 1.00. The final number is then multiplied by 100(% INH=(1.00−SAVE/CAVE)×100).
In general terms: Formazan colour is commonly taken as a measure of viable cells.

Chain of human cyclin B-CDK1 (P06493 whole entry): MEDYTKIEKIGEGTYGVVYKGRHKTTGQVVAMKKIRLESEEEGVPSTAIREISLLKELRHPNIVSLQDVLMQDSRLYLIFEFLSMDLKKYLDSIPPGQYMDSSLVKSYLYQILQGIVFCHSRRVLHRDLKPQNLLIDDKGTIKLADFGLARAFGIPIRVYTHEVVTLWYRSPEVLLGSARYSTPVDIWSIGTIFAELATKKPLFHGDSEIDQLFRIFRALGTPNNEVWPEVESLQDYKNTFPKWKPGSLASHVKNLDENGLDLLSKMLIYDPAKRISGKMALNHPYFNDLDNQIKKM
Chain of human cyclin B-CDK1 (P14635 whole entry partner): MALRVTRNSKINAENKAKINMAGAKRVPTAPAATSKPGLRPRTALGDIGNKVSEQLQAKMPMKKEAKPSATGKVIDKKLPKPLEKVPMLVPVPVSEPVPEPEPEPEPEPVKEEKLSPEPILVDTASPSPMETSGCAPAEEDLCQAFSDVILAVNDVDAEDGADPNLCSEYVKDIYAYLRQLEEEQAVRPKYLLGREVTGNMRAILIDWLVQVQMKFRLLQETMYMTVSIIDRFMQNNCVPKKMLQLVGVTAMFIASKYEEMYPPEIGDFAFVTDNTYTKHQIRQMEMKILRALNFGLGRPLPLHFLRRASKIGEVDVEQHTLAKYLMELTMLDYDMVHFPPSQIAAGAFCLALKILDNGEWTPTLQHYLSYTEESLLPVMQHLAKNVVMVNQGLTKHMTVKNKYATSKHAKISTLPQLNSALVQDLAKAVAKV
Chain of human cyclin D1-CDK4 (P11802 whole entry): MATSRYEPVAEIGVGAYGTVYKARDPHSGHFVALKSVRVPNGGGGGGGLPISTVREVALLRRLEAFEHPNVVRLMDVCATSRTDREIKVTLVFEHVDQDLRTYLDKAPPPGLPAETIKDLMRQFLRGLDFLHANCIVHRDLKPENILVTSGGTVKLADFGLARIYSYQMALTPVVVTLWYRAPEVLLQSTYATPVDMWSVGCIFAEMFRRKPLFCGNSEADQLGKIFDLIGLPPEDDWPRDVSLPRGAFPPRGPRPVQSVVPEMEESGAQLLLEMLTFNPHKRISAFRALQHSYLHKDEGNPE
Chain of human cyclin D1-CDK4 (P24385 whole entry partner): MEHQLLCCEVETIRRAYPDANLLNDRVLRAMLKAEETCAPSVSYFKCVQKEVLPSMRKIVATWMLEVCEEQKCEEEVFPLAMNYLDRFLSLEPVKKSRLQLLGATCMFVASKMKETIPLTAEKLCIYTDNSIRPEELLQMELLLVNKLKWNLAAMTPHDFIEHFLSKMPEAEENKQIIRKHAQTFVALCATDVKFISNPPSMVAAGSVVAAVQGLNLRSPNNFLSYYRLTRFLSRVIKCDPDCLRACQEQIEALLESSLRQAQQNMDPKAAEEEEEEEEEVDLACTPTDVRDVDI

Broadly, the pIC50 is −log10 of the IC50, conventionally taken in molar units. In general, IC90 refers to the point of the concentration-response curve where the effect stands at 90%. Read a high IC90 as weaker potency. `COc1ccc(F)c(F)c1C(=O)c1cnc(N[C@H]2CC[C@H](NS(=O)(=O)CCCN3CCOCC3)CC2)nc1N` [Example 294, Trans-3-Morpholin-4-yl-propane-1-sulfonic acid [4-[4-amino-5-(2,3-difluoro-6-methoxy-benzoyl)-pyrimidin-2-ylamino]-cyclohexyl]-amide]: the pIC50 against human cyclin D1-CDK4 was 7.82; on human cyclin B-CDK1, 8.10; at human cyclin E-CDK2, 8.30. In addition, in the experiment on HCT116 cells, the IC90 is 374 nM.
Consider `COc1ccc(F)c(F)c1C(=O)c1cnc(N[C@H]2CC[C@H](N3CCCS3(=O)=O)CC2)nc1N` [Example 298, Trans-[4-Amino-2-[4-(1,1-dioxo-1λ^6-isothiazolidin-2-yl)-cyclohexylamino]-pyrimidin-5-yl]-(2,3-difluoro-6-methoxy-phenyl)-methanone], for which the negative logarithm of the IC50 (pIC50) was 8.30 against human cyclin D1-CDK4, 7.55 against human cyclin B-CDK1 and 8.10 at human cyclin E-CDK2. This compound gave an IC90 with HCT116 cells of 320 nM.
